Experimental data published in patent US8217071B2, “Use of inhibitors of the degradation of p27, in particular Argyrin and derivatives thereof, for the treatment of proliferative diseases” (Helmholtz Zentrum für Infektionsforschung GmbH, priority 2007, dated 2012).
Numbered stars: 1 amine (or outer) side, 2 acyl side, 3 side chain; on linkers, the order of the positions; unused ones are H or OH. Square brackets hold non-standard residues; d marks the D form. Peptide text beside a SMILES is read from it. dAla(ψthiazole) = C[C@@H](N[*:1])c1nc(C(=O)[*:2])cs1; Trp(4-OMe) = COc1cccc2[nH]cc(C[C@H](N)C(=O)O)c12; Dha = C=C(N)C(=O)O; Sar = CNCC(=O)O

Key:
[1] = tested on: mouse embryonic fibroblasts from p27^kip1 wildtype mice; test: Apoptosis (sub-G1 fraction) by flow cytometry in p27 wildtype MEF; assay type: cell-based; details: for apoptosis in p27 wildtype MEF: sub G1 fraction
Excerpt: (§1) Next the inventors tested whether the stabilization of p27 was indeed required for the apoptosis inducing function of Argyrin A or was merely a consequence of proteasome inhibition. For this the inventors treated immortalized mouse embryonic fibroblasts from p27^kip1 wildtype or knockout mice with Argyrin A or the proteasome inhibitor bortezomib and assayed cell cycle distribution and apoptosis by flow cytometry. […] These differences in sensitivity in response to Argyrin A treatment were not due to differences in the accumulation of other proteasomal substrates in p27 wildtype and knockout cells as p53 and p21 levels increased in both cell lines in response to Argyrin A (FIG. 6B). To extend this observation to human cancer cells the inventors reduced the levels of p27^kip1 in HeLa cells using p27^kip1 specific siRNA.
(§2) The results shown are the average numbers for six independent experiments. b+d) Wildtype (b) and p27 knockout (d) MEF were treated with Argyrin A or transfected with siRNAs specific for the β1, β2 or β5 subunit of the proteasome for 24 hours. The graphs show the remaining catalytic activity of the different proteasome subunits after Argyrin A or siRNA treatment compared to an untreated control (n=3). The western blots show the expression of the β1, β2 or β5 subunit of the proteasome in proliferating cells and after treatment with siRNAs for a representative experiment. c+e) Flow cytometric measurements of the number of apoptotic cells (sub-G1 fraction) after Argyrin A or siRNA treatment in wildtype (c) or p27 knockout (E) MEF. f) HeLa cells were treated with Argyrin A or siRNA against p27 or Argyrin A and siRNA against p27 for either 24 or 48 hours.
(§3) MTT assays were done as previously described (Sasse, F. et al. Argyrins, immunosuppressive cyclic peptides from myxobacteria. I. Production, isolation, physico-chemical and biological properties. J Antibiot (Tokyo) 55, 543-51 (2002)). TUNEL staining of tissue sections was performed on 10 micrometer sections which were deparafinised and treated as recommended by the manufacturer. (In Situ Cell Death Detection Kit, Fluorescein; ROCHE, Cat #11 684 795 910). Flow cytometric analysis of cultured cells was done using a Becton Dickinson fluorescence cytometer as previously described (Malek, N. P. et al. A mouse knock-in model exposes sequential proteolytic pathways that regulate p27^Kip1 in G1 and S phase. Nature 413, 323-7 (2001)). Analysis of the distribution of cells in the cell cycle and the sub-G1 fraction was done using Cell Quest software. A histone-associated-DNA-fragments ELISA was used to determine the number of apoptotic cells according to manufacturers instructions (Roche #11 774425001).

[2] = tested on: mouse embryonic fibroblasts from p27^kip1 knockout mice; test: Apoptosis (sub-G1 fraction) by flow cytometry in p27 knockout MEF; assay type: cell-based; details: for apoptosis in p27 knockout MEF: sub G1 fraction
Excerpt: as §1, §2, §3

[3] = tested on: MCF7 cells; test: Gene expression signature (DNA microarray) of MCF7 cells; assay type: cell-based, human
Description: The inventors decided to compare the cellular responses of cells treated with Argyrin A or bortezomib directly. To this end the inventors determined the gene expression signature of MCF7 cells in response to Argyrin A or bortezomib and compared the resulting gene expression profiles. […] As shown in FIG. 2G the gene expression profiles of MCF7 cells which were treated with either bortezomib or Argyrin A differ dramatically. While bortezomib treatment led to changes in the expression of more than 10900 genes, only about 500 genes changed in response to Argyrin A treatment. Among these genes, 311 were affected by both bortezomib and Argyrin A, respectively.
Quality and integrity of the total RNA isolated was controlled by running all samples on an Agilent Technologies 2100 Bioanalyzer (Agilent Technologies; Waldbronn, Germany). For biotin-labelled target synthesis starting from 3 μg of total RNA, reactions were performed using standard protocols supplied by the manufacturer (Affymetrix; Santa Clara, Calif.). In each case 10 μg of labelled cRNA were hybridized to an identical lot of Affymetrix GeneChips HG-U133 2.0 for 16 hours at 45° C. After hybridisation the GeneChips were washed, stained with SA-PE and read using an Affymetrix GeneChip fluidic station and scanner.
Analysis of microarray data was performed using the Affymetrix GCOS 1.2 software. […]

Row | Structure (SMILES) | apoptosis, share of all cells, wildtype fibroblasts ([1]; after 24 hours) | apoptosis in p27 wildtype MEF [1] | p27^kip1 knockout fibroblasts undergoing apoptotic cell death ([2]; after 60 hours of treatment) | apoptosis, share of all fibroblasts derived from p27 knockout mice ([2]; comparable levels of proteasome inhibition, 24 hours) | number of genes with changed expression [3] | apoptosis in p27 wildtype MEF ([1]; listed as Bortezomib) | apoptosis in p27 knockout MEF [2] | apoptosis in p27 knockout MEF ([2]; listed as Bortezomib)
1 | C=C1NC(=O)[C@@H](C)NC(=O)CNC(=O)[C@H](Cc2c[nH]c3cccc(OC)c23)NC(=O)[C@H](Cc2c[nH]c3ccccc23)NC(=O)c2csc(n2)[C@@H](C)NC(=O)CN(C)C1=O [Argyrin A] (cyclo(W[Trp(4-OMe)]G[dA][Dha][Sar][dAla(ψthiazole)])) | 38% | induced apoptosis | ten | 5% | about 500 genes | – | – | –
2 | CC(C)C[C@H](NC(=O)[C@H](Cc1ccccc1)NC(=O)c1cnccn1)B(O)O [bortezomib, reference compound] | – | massive apoptosis | – | – | more than 10900 genes | induced apoptosis | massive apoptosis | induced apoptosis
